Assay [1] has as its target Prothrombin (Homo sapiens, UniProt P00734). The assay is described as follows: Binding affinity towards thrombin.
In assay [2] the target is Plasminogen (Homo sapiens, UniProt P00747). Put plainly: Binding affinity towards Plasmin.
Assay [3] has as its target Tissue-type plasminogen activator (Homo sapiens, UniProt P00750). The assay is described as follows: Binding affinity against tissue-type plasminogen activator receptor.
The target of assay [4] is Serine protease 1 (Homo sapiens, UniProt P07477). The assay is described as follows: Binding affinity towards trypsin.
Sequence of Serine protease 1 (P07477 whole entry): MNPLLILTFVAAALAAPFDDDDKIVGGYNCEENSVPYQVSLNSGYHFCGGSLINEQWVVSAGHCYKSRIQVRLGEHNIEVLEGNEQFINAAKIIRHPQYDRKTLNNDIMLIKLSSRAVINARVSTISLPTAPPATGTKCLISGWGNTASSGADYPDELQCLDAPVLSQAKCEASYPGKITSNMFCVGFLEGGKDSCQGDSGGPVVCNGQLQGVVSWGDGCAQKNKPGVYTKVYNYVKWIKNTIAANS

Sequence of Plasminogen (P00747 97-580 limits assumed): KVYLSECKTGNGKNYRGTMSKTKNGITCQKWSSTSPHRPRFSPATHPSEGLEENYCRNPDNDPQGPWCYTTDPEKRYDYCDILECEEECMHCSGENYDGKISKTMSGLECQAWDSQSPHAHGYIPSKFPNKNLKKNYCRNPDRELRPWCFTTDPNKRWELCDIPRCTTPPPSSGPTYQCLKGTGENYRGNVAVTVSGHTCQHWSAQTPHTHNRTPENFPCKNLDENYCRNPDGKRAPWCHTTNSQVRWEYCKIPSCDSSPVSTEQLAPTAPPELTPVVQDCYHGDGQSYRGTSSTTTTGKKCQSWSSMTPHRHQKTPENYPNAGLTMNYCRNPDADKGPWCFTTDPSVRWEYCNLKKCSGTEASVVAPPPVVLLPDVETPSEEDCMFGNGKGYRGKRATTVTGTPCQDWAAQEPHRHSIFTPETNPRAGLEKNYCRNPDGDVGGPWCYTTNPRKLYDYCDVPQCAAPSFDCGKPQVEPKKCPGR
Sequence of Plasminogen (P00747 581-810 limits assumed): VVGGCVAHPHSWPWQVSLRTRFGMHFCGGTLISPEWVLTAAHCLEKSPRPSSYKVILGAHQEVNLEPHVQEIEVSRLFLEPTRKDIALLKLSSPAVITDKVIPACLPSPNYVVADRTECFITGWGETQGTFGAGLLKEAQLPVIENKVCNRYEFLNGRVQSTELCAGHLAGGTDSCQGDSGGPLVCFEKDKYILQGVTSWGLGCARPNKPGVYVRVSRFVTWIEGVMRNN
Sequence of Tissue-type plasminogen activator (P00750 whole entry): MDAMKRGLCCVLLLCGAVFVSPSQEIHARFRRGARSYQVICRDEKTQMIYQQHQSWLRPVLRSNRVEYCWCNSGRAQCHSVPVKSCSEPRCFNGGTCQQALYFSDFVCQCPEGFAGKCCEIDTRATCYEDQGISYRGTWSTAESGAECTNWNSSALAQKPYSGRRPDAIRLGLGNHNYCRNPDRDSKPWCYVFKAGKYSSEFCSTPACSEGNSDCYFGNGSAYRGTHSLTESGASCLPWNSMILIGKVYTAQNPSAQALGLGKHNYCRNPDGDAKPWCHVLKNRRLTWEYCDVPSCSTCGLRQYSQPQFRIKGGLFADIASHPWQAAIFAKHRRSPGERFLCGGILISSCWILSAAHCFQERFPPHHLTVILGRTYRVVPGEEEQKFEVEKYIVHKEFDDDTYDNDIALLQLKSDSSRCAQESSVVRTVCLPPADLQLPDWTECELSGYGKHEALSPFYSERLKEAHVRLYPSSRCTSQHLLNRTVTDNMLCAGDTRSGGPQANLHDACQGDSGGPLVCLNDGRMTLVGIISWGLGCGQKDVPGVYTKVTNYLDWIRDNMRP

In turn, `CN[C@H](Cc1ccccc1)C(=O)N1CCC[C@H]1C(=O)NC[C@H]1CC[C@H](N)CC1` returned a Ki in assay [1] of 5 nM.
In turn, `CNC(=O)C(=O)[C@@H](NC(=O)[C@@H]1CCCN1C(=O)[C@@H](Cc1ccccc1)NC)[C@H]1CC[C@H](N)CC1` returned a Ki in assay [1] of 0.09 nM.
On the same count and under the same terms, the value for `NC1CCC(CNC(=O)[C@@H]2CCCN2C(=O)[C@@H](Cc2ccccc2)NS(=O)(=O)Cc2ccccc2)CC1` (stereo partly drawn) was 0.4 nM; that for `NC1CCC(CNC(=O)[C@@H]2CCCN2C(=O)[C@H](N)C(c2ccccc2)c2ccccc2)CC1` (stereo partly drawn) was 0.1 nM.
Consider `NC1CCC(CNC(=O)[C@@H]2CCCN2C(=O)C(NS(=O)(=O)Cc2ccccc2)C(c2ccccc2)c2ccccc2)CC1` (stereo partly drawn), for which the inhibition constant Ki in assay [2] came to 0.49 µM; in assay [1], 0.0025 nM; in assay [3] it was 6700 µM; in assay [4], 0.004 µM.

A word on the Ki: it is the equilibrium dissociation constant of an inhibitor or competing ligand from its target.

These data come from ChEMBL document CHEMBL1129964 (J Med Chem, 1997).
